This experiment has as its target T1, Programmed cell death protein 4 (Homo sapiens, UniProt Q53EL6).
T1 sequence (Q53EL6 whole entry): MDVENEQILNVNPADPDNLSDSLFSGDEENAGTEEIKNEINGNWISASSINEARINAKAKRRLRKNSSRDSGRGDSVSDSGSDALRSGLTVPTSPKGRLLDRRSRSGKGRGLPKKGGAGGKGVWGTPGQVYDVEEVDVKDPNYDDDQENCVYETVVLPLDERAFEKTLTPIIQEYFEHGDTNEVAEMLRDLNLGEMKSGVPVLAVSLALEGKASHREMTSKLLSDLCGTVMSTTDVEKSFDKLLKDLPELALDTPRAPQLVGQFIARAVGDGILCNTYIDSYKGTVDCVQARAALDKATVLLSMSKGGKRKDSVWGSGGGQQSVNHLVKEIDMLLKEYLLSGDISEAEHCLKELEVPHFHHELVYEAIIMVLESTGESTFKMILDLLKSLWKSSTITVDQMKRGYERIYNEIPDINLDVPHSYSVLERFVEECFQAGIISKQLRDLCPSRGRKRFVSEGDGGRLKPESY
Nature of the experiment: Inhibition of PDCD4 in human HeLa cells tranfected with pCI-neo-luciferase-PDCD4 3'-UTR plasmid assessed as increase in luciferase activity by luciferase reporter assay. Background: A reporter such as luciferase makes a cellular process visible.

Each structure is given as a SMILES string. pEC50: −log10 of the molar value.

The source of these data is BindingDB's records for PubMed 35695407 (Chinese Academy of Sciences, 2022).

As usually defined, the pEC50 is the negative decadic logarithm of the EC50, by convention in mol/L.

As for `CCOC(=O)c1nc(-c2ccc(OC)cc2)oc1C`, the pEC50 was 5.65.
